# Reference: patent EP4818317A1, “POLYPEPTIDE FOR BIOSYNTHESIS OF 1,2-PROPANEDIOL AND USE THEREOF” (Tianjin University, priority 2023, dated 2025)
# B1: Escherichia coli strain K12 1,5-anhydromannitol-6-phosphate isomerase EcPflD (Uniprot P32674), SEQ ID NO: 98 (Escherichia coli K-12) (protein)
# chain: MTNRISRLKTALFANTREISLERALLYTASHRQTEGEPVILRRAKATAYILEHVEISIRDEELIAGNRTVKPRAGIMSPEMDPYWLLKELDQFPTRPQDRFAISEEDKRIYREELFPYWEKRSMKDFINGQMTDEVKAATNTQIFSINQTDKGQGHIIIDYPRLLNHGLGELVAQMQQHCQQQPENHFYQAALLLLEASQKHILRYAELAETMAANCTDAQRREELLTIAEISRHNAQHKPQTFWQACQLFWYMNIILQYESNASSLSLGRFDQYMLPFYQTSLTQGEDAAFLKELLESLWVKCNDIVLLRSTSSARYFAGFPTGYTALLGGLTENGRSAVNVLSFLCLDAYQSVQLPQPNLGVRTNALIDTPFLMKTAETIRFGTGIPQIFNDEVVVPAFLNRGVSLEDARDYSVVGCVELSIPGRTYGLHDIAMFNLLKVMEICLHENEGNAALTYEGLLEQIRAKISHYITLMVEGSNICDIGHRDWAPVPLLSSFISDCLEKGRDITDGGARYNFSGVQGIGIANLSDSLHALKGMVFEQQRLSFDELLSVLKANFATPEGEKVRARLINRFEKYGNDIDEVDNISAELLRHYCKEVEKYQNPRGGYFTPGSYTVSAHVPLGSVVGATPDGRFAGEQLADGGLSPMLGQDAQGPTAVLKSVSKLDNTLLSNGTLLNVKFTPATLEGEAGLRKLADFLRAFTQLKLQHIQFNVVNADTLREAQQRPQDYAGLVVRVAGYSAFFVELSKEIQDDIIRRTAHQL
# Legend:
# [1] = system: Lactiplantibacillus plantarum 1,5-anhydroglucitol-6-phosphate isomerase LpYbiW (Uniprot A0A807DR53), SEQ ID NO: 2; assay: Michaelis-Menten kinetics of LpYbiW, coupled with LpFsaA and EcGldA, NADH consumption at A340nm; type: biochemical; settings: 100 nM activated LpYbiW, 20 mM Tris/HCl pH 7.5, 100 mM KCl, 5 µM LpFsaA, 5 µM EcGldA, 0.4 mM NADH, anaerobic glove box; substrate 1,5-anhydroglucitol-6-phosphate at varying concentrations
# Method: Continuous-wave X-band EPR spectroscopy was used to characterize the LpYbiW glycyl radical. A reaction system (200 µL) containing 20 mM Tris/HCl, (pH 7.5), 100 mM KCl, 100 µM titanium(III) citrate, 1 mM SAM, 80 µM reconstituted LpYbiY, and 40 µM LpYbiW was incubated for 15 minutes at room temperature in a glove box. 10% glycerol was added, and a resulting mixture was loaded into an EPR tube (Wilmad Lab Glass, 734-LPV-7) with an outer diameter of 4 mm and a length of 8 inches. The tube was sealed with a rubber stopper, removed from the glove box, and frozen using liquid nitrogen before EPR analysis. The experimental spectrum of the glycyl radical was modeled using Bruker Xepr spin fitting to obtain g-values, hyperfine coupling constants, and line widths. Double integration of the simulated spectrum was used to measure the spin concentration. […]
# The Michaelis-Menten kinetic parameters of LpYbiW were determined by coupling with LpFsaA and EcGldA. The reaction rate of LpYbiW was monitored by measuring NADH consumption at A340nm. The absorbance change of the reaction system at 340 nm was measured every 5 seconds using the cuvette mode of an ultra-micro UV-visible spectrophotometer (Nanophotometer) in a glove box (1 cm light path). […]
# [2] = target: T1, Escherichia coli strain K12 1,5-anhydromannitol-6-phosphate isomerase EcPflD (Uniprot P32674), SEQ ID NO: 98 (Escherichia coli, UniProt P32674); assay: Michaelis-Menten kinetics of EcPflD, coupled with EcFsaB and EcGldA, decrease in A340nm; type: biochemical; settings: 40 nM activated EcPflD, 20 mM Tris/HCl pH 7.5, 100 mM KCl, 2 µM EcFsaB, 2 µM EcGldA, 0.4 mM NADH, anaerobic glove box; substrate 1,5-AM-6P at various concentrations
# T1 sequence (P32674 1-765): B1 chain
# Method: (§1) The EcPflD glycine radical was characterized using continuous-wave X-band electron paramagnetic resonance (EPR) spectroscopy. A reaction system (200 µL) containing 20 mM Tris/HCl, (pH 7.5), 100 mM KCl, 100 µM titanium(III) citrate, 1 mM SAM, 80 µM reconstituted EcPflC, and 40 µM EcPflD was incubated for 15 minutes at room temperature in a glove box. Glycerol (10%) was added, and a resulting mixture was transferred to an EPR tube with an outer diameter of 4 mm and a length of 8 inches (Wilmad Lab Glass, 734-LPV-7). The tube was sealed with a rubber stopper, removed from the glove box, and frozen in liquid nitrogen prior to EPR analysis. […]
# (§2) A reaction mixture containing 20 mM Tris/HCl, (pH 7.5), 100 mM KCl, 10 mM 1,5-AM-6P, 40 nM activated EcPflD, 5 µM EcFsaB, 5 µM EcGldA, and 0.4 mM NADH was incubated in a 1 cm Eppendorf cuvette in a glove box at room temperature. Absorbance at 340 nm was monitored every 5 seconds using a cuvette mode of an ultra-micro UV-Vis spectrophotometer (Hangzhou Miu Instruments Co., Ltd.) inside the glove box. […]
# (§3) The reaction system containing 20 mM Tris/HCl, (pH 7.5), 100 mM KCl, 40 nM activated EcPflD and 1,5-AM-6P with various substrate concentrations, 2 µM EcFsaB, 2 µM EcGldA, and 0.4 mM NADH was measured using a cuvette mode of an ultra-micro UV-Vis spectrophotometer (Hangzhou Miu Instruments Co., Ltd.) in a 1 cm Eppendorf cuvette inside a glove box. […]
# [3] = substrate: O=P(O)(O)OC[C@H]1OC[C@@H](O)[C@@H](O)[C@@H]1O; assay: as above; type: biochemical, Escherichia coli strain K12; settings: other: 40 nM activated EcPflD, 20 mM Tris/HCl pH 7.5, 100 mM KCl, 2 µM EcFsaB, 2 µM EcGldA, 0.4 mM NADH, anaerobic glove box, substrate 1,5-AM-6P at various concentrations
# Method: as §1, §2, §3
molecule,measurement,setting,value
"O=P(O)(O)OC[C@H]1OC[C@H](O)[C@@H](O)[C@@H]1O [1,5-AG-6P, 1,5-anhydroglucitol-6-phosphate]",Km,[1],36.5 ± 6.66 mM
same,kcat,[1],43.38 ± 2.96 s^-1/LpYbiW
"O=P(O)(O)OC[C@H]1OC[C@@H](O)[C@@H](O)[C@@H]1O [1,5-AM-6P, 1,5-anhydromannitol-6-phosphate]",kcat,[2],33.47 ± 0.79 s^-1/EcPflD
B1,Km,[3],1.33 ± 0.12 mM
